Source: PubChem BioAssay AID292 (DTP/NCI, 2004)
Several values for one entry are separate records, joined by “and”; a condition that tells them apart may be missing. Equal values may be shown once. Toxic doses and inconclusive results are not listed.

System: B6C3F1 mice, ip Sarcoma M5076, median survival T/C
Assay: NCI In Vivo Anticancer Drug Screen. Data for tumor model Sarcoma M5076 (intraperitoneal) in B6C3F1 mice
Details: endpoint: median survival time, schedule: Q04DX004 (ip), higher = longer survival
Procedure, shortened: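 Survival measured in treated (T) and vehicle control (C) mice with transplantable tumour; result given as T divided by C.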

[1] = dose: 75.0 mg/kg/injection, vehicle: saline with Tween-80
[2] = dose: 150.0 mg/kg/injection, vehicle: saline with Tween-80
[3] = dose: 300.0 mg/kg/injection, vehicle: saline with Tween-80
[4] = dose: 600.0 mg/kg/injection, vehicle: saline with Tween-80
[5] = dose: 2.0 mg/kg/injection, vehicle: water
[6] = dose: 4.0 mg/kg/injection, vehicle: water
[7] = dose: 8.0 mg/kg/injection, vehicle: water
[8] = dose: 50.0 mg/kg/injection, vehicle: saline with Tween-80
[9] = dose: 100.0 mg/kg/injection, vehicle: saline with Tween-80
[10] = dose: 200.0 mg/kg/injection, vehicle: saline with Tween-80
[11] = dose: 400.0 mg/kg/injection, vehicle: saline with Tween-80
[12] = dose: 800.0 mg/kg/injection, vehicle: saline with Tween-80
[13] = dose: 50.0 mg/kg/injection, vehicle: saline
[14] = dose: 100.0 mg/kg/injection, vehicle: saline
[15] = dose: 200.0 mg/kg/injection, vehicle: saline
[16] = dose: 400.0 mg/kg/injection, vehicle: saline
[17] = dose: 25.0 mg/kg/injection, vehicle: saline
[18] = dose: 37.5 mg/kg/injection, vehicle: saline with Tween-80
[19] = dose: 25.0 mg/kg/injection, vehicle: saline with Tween-80

C=COC(=O)C(Cc1ccccc1)NC(=O)OCc1ccccc1 (stereo not given)
T/C [1]: 91 % of control
T/C [2]: 111 % of control
T/C [3]: 113 % of control
T/C [4]: 91 % of control
T/C (dose: 1200.0 mg/kg/injection, vehicle: saline with Tween-80): 88 % of control

CS(=O)CCN=Cc1ccc(N=Nc2ccc(O)cc2)cc1 (stereo not given)
T/C (dose: 37.0 mg/kg/injection, vehicle: saline with Tween-80): 109 % of control
T/C [1]: 90 % of control
T/C [2]: 87 % of control
T/C [4]: 87 % of control

O=C(O)c1cc(C(=O)O)c(C(=O)O)cc1C(=O)O.[NH2-].[NH2-].[NH2-].[NH2-].[Pt+2].[Pt+2]
T/C (dose: 0.12 mg/kg/injection, vehicle: water): 99 % of control
T/C (dose: 0.25 mg/kg/injection, vehicle: water): 112 % of control
T/C (dose: 0.5 mg/kg/injection, vehicle: water): 100 % of control
T/C (dose: 1.0 mg/kg/injection, vehicle: water): 97 % of control
T/C [5]: 94 % of control
T/C [6]: 103 % of control and 108 % of control
T/C [7]: 113 % of control and 119 % of control
T/C (dose: 32.0 mg/kg/injection, vehicle: water): 150 % of control and 241 % of control
T/C (dose: 64.0 mg/kg/injection, vehicle: water): 250 % of control

Cc1ccc2c(c1)C1(SC(C)C(=O)N1c1ccc(Cl)cc1)C(=O)N2 (stereo not given)
T/C [8]: 96 % of control
T/C [9]: 101 % of control
T/C [10]: 98 % of control
T/C [11]: 93 % of control
T/C [12]: 86 % of control

CN(CN1C(=O)CCC1=O)CN1C(=O)CCC1=O
T/C [13]: 92 % of control
T/C [14]: 100 % of control
T/C [15]: 96 % of control
T/C [16]: 116 % of control

Nc1ncc(C2OC(CO)C(O)C2O)c(=O)[nH]1 (stereo not given)
T/C [17]: 106 % of control
T/C [13]: 104 % of control
T/C [14]: 103 % of control
T/C [15]: 96 % of control
T/C [16]: 100 % of control

CCN(CC)CC(=O)O[C@]1(CC)C(=O)OCc2c1cc1n(c2=O)Cc2cc3ccccc3nc2-1
T/C [5]: 106 % of control and 110 % of control
T/C [6]: 107 % of control and 108 % of control
T/C [7]: 120 % of control and 124 % of control

Cn1nc2c(c(Cl)c1=O)Nc1ccccc1O2
T/C [18]: 104 % of control
T/C [1]: 97 % of control
T/C [2]: 96 % of control

Clc1cccc2[nH]c(-c3ccncc3)nc12
T/C [18]: 104 % of control
T/C [1]: 111 % of control
T/C [2]: 98 % of control
T/C [3]: 105 % of control
T/C [4]: 100 % of control

CC(=O)NO
T/C (dose: 100.0 mg/kg/injection, vehicle: water): 97 % of control and 100 % of control and 105 % of control
T/C (dose: 200.0 mg/kg/injection, vehicle: water): 101 % of control and 103 % of control and 104 % of control
T/C (dose: 400.0 mg/kg/injection, vehicle: water): 107 % of control and 109 % of control
T/C (dose: 800.0 mg/kg/injection, vehicle: water): 106 % of control and 108 % of control
T/C (dose: 1600.0 mg/kg/injection, vehicle: water): 113 % of control and 115 % of control

c1ccc(OCC2CO2)c(OCC2CO2)c1 (stereo not given)
T/C [8]: 111 % of control and 121 % of control
T/C [9]: 118 % of control and 123 % of control
T/C [10]: 156 % of control and 173 % of control

C=CCc1cn(C2CC(O)C(CO)O2)c(=O)[nH]c1=O (stereo not given)
T/C [13]: 99 % of control
T/C [14]: 93 % of control
T/C [15]: 93 % of control
T/C [16]: 101 % of control

S=C1CCCCN1
T/C (dose: 6.25 mg/kg/injection, vehicle: distilled water + alcohol): 101 % of control
T/C (dose: 12.5 mg/kg/injection, vehicle: distilled water + alcohol): 99 % of control
T/C (dose: 25.0 mg/kg/injection, vehicle: distilled water + alcohol): 98 % of control and 103 % of control
T/C (dose: 50.0 mg/kg/injection, vehicle: distilled water + alcohol): 92 % of control and 94 % of control and 100 % of control
T/C (dose: 100.0 mg/kg/injection, vehicle: distilled water + alcohol): 88 % of control and 100 % of control (2×)

COC1=C(OC)C(=O)C(C(=O)CCCCC(=O)O)=C(C)C1=O
T/C [19]: 100 % of control
T/C [8]: 98 % of control and 105 % of control
T/C [9]: 92 % of control and 97 % of control
T/C [10]: 91 % of control
T/C [11]: 91 % of control and 97 % of control
T/C [12]: 95 % of control

Cc1cccc(OCC(O)CN2CC2)c1 (stereo not given)
T/C [19]: 101 % of control and 104 % of control
T/C (dose: 36.0 mg/kg/injection, vehicle: saline with Tween-80): 97 % of control
T/C [8]: 105 % of control and 114 % of control
T/C (dose: 60.0 mg/kg/injection, vehicle: saline with Tween-80): 102 % of control
T/C (dose: 166.66 mg/kg/injection, vehicle: saline with Tween-80): 119 % of control
T/C [10]: 108 % of control
T/C (dose: 277.77 mg/kg/injection, vehicle: saline with Tween-80): 116 % of control

CCN(CC)CCn1[nH]c2c3ccc(=O)cc3sc3c(NCCN)ccc1c32
T/C (dose: 3.12 mg/kg/injection, vehicle: water): 194 % of control
T/C (dose: 6.25 mg/kg/injection, vehicle: water): 155 % of control and 163 % of control and 200 % of control
T/C (dose: 12.5 mg/kg/injection, vehicle: water): 178 % of control and 201 % of control and 239 % of control

O=C(CSc1nnc(CSc2ccc(Cl)cc2)n1-c1ccccc1)NC(=O)Nc1ccccc1
T/C (dose: 4.69 mg/kg/injection, vehicle: Klucel (hydroxypropylcellulose) (HPC)): 103 % of control
T/C (dose: 9.38 mg/kg/injection, vehicle: Klucel (hydroxypropylcellulose) (HPC)): 102 % of control
T/C (dose: 18.75 mg/kg/injection, vehicle: Klucel (hydroxypropylcellulose) (HPC)): 88 % of control
T/C (dose: 37.5 mg/kg/injection, vehicle: Klucel (hydroxypropylcellulose) (HPC)): 88 % of control and 89 % of control

C[C@H](N)C(=O)N[C@@H]1[C@H]2C(=C(O)C[C@@H](O)[C@@H]2O)C(=O)O[C@]1(C)C(Cl)Cl
T/C (dose: 2.16 mg/kg/injection, vehicle: saline): 159 % of control
T/C (dose: 3.6 mg/kg/injection, vehicle: saline): 179 % of control
T/C (dose: 6.0 mg/kg/injection, vehicle: saline): 152 % of control and 164 % of control
T/C (dose: 10.0 mg/kg/injection, vehicle: saline): 235 % of control

O=c1/c(=C\C=C\c2ccccc2)sc2n1CCN=2
T/C [8]: 95 % of control
T/C [9]: 99 % of control
T/C [10]: 91 % of control
T/C [11]: 99 % of control

CC(C)CC(NC(=O)CF)C(=O)O (stereo not given)
T/C (dose: 1.56 mg/kg/injection, vehicle: saline with Tween-80): 98 % of control
T/C (dose: 3.12 mg/kg/injection, vehicle: saline with Tween-80): 102 % of control
T/C (dose: 6.25 mg/kg/injection, vehicle: saline with Tween-80): 95 % of control
T/C (dose: 12.5 mg/kg/injection, vehicle: saline with Tween-80): 97 % of control

C[C@]12C=CC(=O)C=C1CC[C@@H]1[C@@H]2C(=O)C[C@@]2(C)[C@H]1CC[C@]2(O)C(=O)CO
T/C (dose: 50.0 mg/kg/injection, vehicle: Klucel (hydroxypropylcellulose) (HPC)): 105 % of control and 123 % of control
T/C (dose: 100.0 mg/kg/injection, vehicle: Klucel (hydroxypropylcellulose) (HPC)): 118 % of control
T/C (dose: 200.0 mg/kg/injection, vehicle: Klucel (hydroxypropylcellulose) (HPC)): 116 % of control
T/C (dose: 400.0 mg/kg/injection, vehicle: Klucel (hydroxypropylcellulose) (HPC)): 94 % of control

OCCN1CCN(CC/C=C2/c3ccccc3Sc3ccc(C(F)(F)F)cc32)CC1
T/C (dose: 6.25 mg/kg/injection, vehicle: saline): 108 % of control
T/C (dose: 12.5 mg/kg/injection, vehicle: saline): 100 % of control
T/C [17]: 108 % of control
T/C [13]: 112 % of control
